# Assay results: paper PMC10619691, “Effect of cyclic substituents on the anti-cancer activity and DNA interaction of ruthenium(II) bis-phenanthroline dipyridoquinoline” (Frontiers in Molecular Biosciences, 2023)
# Key:
# PNT1A normal prostate = experiment: sulphorhodamine B (SRB) cytotoxicity assay; format: cell-based, human; details: for IC50: SRB assay, 72 h incubation, mean ± SEM
# Procedure: The cytotoxicity profile of the ruthenium complexes […]-572, and POW-12A was assessed in various cancer cell lines, namely, human cervical cancer HeLa, prostate cancer cell line DU145, breast cancer cell line MDAMB231MB231, ovarian cancer cell line A2780, and cisplatin-resistant ovarian cancer cell line A2780-CP70, using the preferred screen of the National Cancer Institute, the sulphorhodamine (SRB) dye assay, and the trypan blue cell viability assay ([Skehan et al., 1990]; [Houghton et al., 2007]; [Strober, 2001]). To determine their selective toxicity profile, these complexes were also tested in a normal prostate cell line (PTN1A). From the similarity in chemical structures of the compounds, we deduced that a structure-activity relationship study will help elucidate key properties involved in the cytotoxic activity of this class of metal complexes. The sulphorhodamine B (SRB) assay was used to evaluate the cytotoxicity of each cancer line after treating them with the metal complexes in line with the previously established protocol ([Skehan et al., 1990]). A cell density of 3 × 10^4 cells/mL was treated with various concentrations (3, 10, 30, 50, and 100 μM) of each ruthenium complex by 1:200 dilutions of stock solutions (in DMSO) in culture media, using DMSO as a control. Then, 100 μL of the cell-drug suspension was added to the respective wells of a 96-well plate and incubated at 37°C for 72 h in a CO2-containing incubator. Following this, the cells were fixed using 25 ul of Carnoy's solution and left in the fridge (4°C) for 1 h. The plates were then rinsed with running water and tapped on paper to remove dead cells. The cells were then stained with 100 μL of sulphorhodamine B dye and left for 30 min, after which the dye was washed off using 1% acetic acid, and the plate was left to dry in the oven (60°C). The stained cells were then treated with 100 μL of Tris base (10 mM, pH 10) to solubilize the dye stain. Finally, the plates were analyzed using an Omega plate reader. Each assay was conducted in triplicate. % Cell response=Average of treated cells / Average of control cells x 100.
# [1] = partition coefficient (log P), shake-flask method; format: physicochemical; details: phosphate buffered saline (pH 7.4) / 1-octanol
# Excerpt: The role of lipophilicity in the activity of ruthenium (II) polypyridyl complexes is one that has been extensively reported ([Notaro and Gasser, 2017]). […] Based on this, we carried out a partition coefficient (log P) test using a shake-flask method to determine whether the marginal structural differences between VNK-754, VNK-572, and POW-12A affect their lipophilicity and to examine whether such a difference in lipophilicity confers any advantage to their anti-cancer activity. The log P results, as presented in Table 2, clearly show VNK-572 (0.014) and POW-12A (0.077) to be more lipophilic than VNK-754 (−0.874). […] Thus, along with varied DNA intercalating properties, this explains, in part, why there are appreciable differences in the cytotoxic effects of VNK572 and POW12A compared to VNK-754, even though they are generally similar in structure. For example, VNK-572 with an additional benzene ring can penetrate the bi-lipid-layered cell membrane better and achieve higher cellular and nuclear concentrations than VNK-754, producing a greater anti-tumor effect.
# To study the lipophilicity of our complexes, we used the shake-flask method at 25.0 °C ± 0.1°C in line with the previously reported protocol ([Dubey et al., 2017]). Equal volumes of the aqueous phase (phosphate buffered saline, pH 7.4) and the 1-octanol phase were pre-saturated with each other overnight. A known amount of the complexes (respectively) was added to the aqueous phase, ensuring our final concentration was within the range of UV spectroscopic analysis; then, an equal volume of the pre-saturated […] phase was added. Both phases were then mixed in a conical flask and left shaking on a thermostatic shaker at a speed of 100 rpm overnight at room temperature. […] Considering that lipophilic compounds will partition into the octanol phase, the concentration of the complexes left in the aqueous phase was analyzed, respectively, by UV spectroscopy; then, the Log P value was calculated: Logp = Log10 ([solute] un-ionized octanol/[solute] un-ionized water).
# HeLa cells = experiment: cellular localization by confocal fluorescence microscopy; format: cell-based, human; details: 50 μM, 2 h incubation, co-localization with DAPI
# Procedure: This was further confirmed by the co-localization of these complexes with a nuclear counterstain (DAPI) (Figure 2).
# Fluorescence microscopy was used to study cellular localization. HeLa cells were seeded on autoclaved coverslips in the 6-well plate and incubated at 37°C for 48 h, after which the culture media were replaced with media containing VNK-572 (50 μM) and VNK-754 (50 μM), respectively, and further incubation was performed for 2 h. Following this, the cells were fixed with Carnoy’s solution and washed twice with PBS thereafter. Finally, the HeLa cells were counterstained with DAPI, and the seeded coverslips were inverted and placed on slides for examination. A Leica confocal microscope was used for the observation of the samples using a magnification of ×63.
# [2] = tested on: RF I φX174 supercoiled circular DNA; experiment: supercoiled DNA unwinding by atomic force microscopy; format: binding; details: AFM; P/D = 14 for POW-12A and VNK-572, P/D = 5 for VNK-754
# Procedure: FIGURE 7 AFM height images RF I φX174 on a magnesium-soaked mica surface over an area of 2 µm. Samples with the ruthenium complex had solution mixing ratios of P/D = 14 for POW-12A and VNK-572; and of P/D = 5 VNK-754.
# Samples for atomic force microscopy (AFM) were prepared on mica crystals cut into squares of approximately 1 cm^2. These squares were stuck with double-sided tape to a 15-mm diameter metal disc. Before sample preparation, Cellotape was used to remove the top layer of the mica crystal, giving a freshly cleaved surface layer on which the sample is to be deposited. Mica was soaked in a 0.1 M solution of MgCl2 for 5 min and blown dry, and Mg^2+ was used to help DNA (negatively charged) adhere to the negatively charged surface of the mica. For solutions containing DNA and POW-12A or VNK-572, a P/D value of 14 was used. For the solution containing DNA and VNK-754, a P/D value of 5 was used. Then, 2 μL of the solution was pipetted onto the mica surface and left for 10 min until the solvent had evaporated, leaving the DNA adhered to the surface. To remove excess salt, each sample was washed three times with 10 µL nanopure water, drying with nitrogen after each wash. AFM was conducted using a Bruker Multi-mode 2 atomic force microscope operated with a NanoScope V controller. ScanAsyst-AIR AFM tips were purchased from Bruker. Scans were run in tapping mode using ScanAsyst, measuring height, peak force error, and phase. The spring constant was adjusted to the spring constant of the tip, which is 0.4 N m^−1 for ScanAsyst-AIR tips; feedback parameters were set automatically by ScanAsyst Auto. Scans were run over 2 μm^2 areas with 512 lines. Images were prepared using NanoScope analysis software. Raw data were processed using first-order flattening and third-order plane fitting. If the background required smoothening due to large molecules on the surface, first-order flattening with a threshold of Z < 0.05 nm was used to improve the appearance of the background. […]
LogP [1],SMILES,IC50 (PNT1A normal prostate),cellular localization (HeLa cells),unwinding of supercoiled circular DNA [2],fold difference in sensitivity between normal prostate cells (PNT1A) and prostate cancer cell line DU145 (PNT1A normal prostate; from SRB IC50 values)
0.077,F[P-](F)(F)(F)(F)F.F[P-](F)(F)(F)(F)F.[Ru+2].c1cnc2c(c1)c1ncc3c(c1c1cccnc12)CCC3.c1cnc2c(c1)ccc1cccnc12.c1cnc2c(c1)ccc1cccnc12 [POW-12A],> 100 µM,penetrate the nucleus,unwound,–
0.014,F[P-](F)(F)(F)(F)F.F[P-](F)(F)(F)(F)F.[Ru+2].c1cnc2c(c1)c1ncc3c(c1c1cccnc12)CCCC3.c1cnc2c(c1)ccc1cccnc12.c1cnc2c(c1)ccc1cccnc12 [VNK-572],> 100 µM,penetrate the nucleus,unwound,more than five-fold
